# Measured values as given in the NIST ThermoML archive (doi:10.1016/j.fluid.2013.08.026).
# ± gives the expanded uncertainty stated by the source.
# Conditions: for surface tension liquid-gas: Maximal bubble pressure; for mass density: 101.33 kPa, Liquid, Buoyancy - hydrostatic balance
smiles,measurement,setting,value
CCCCCCCn1cc[n+](C)c1.[Br-] [1-heptyl-3-methylimidazolium bromide],surface tension liquid-gas,293.15 K,37.8 ± 0.5 mN/m
same,mass density,293.15 K,1249 ± 1.3 kg/m3
same,surface tension liquid-gas,298.15 K,37.5 ± 0.5 mN/m
same,mass density,298.15 K,1245.9 ± 1.3 kg/m3
same,surface tension liquid-gas,303.15 K,37.2 ± 0.5 mN/m
same,mass density,303.15 K,1242.3 ± 1.2 kg/m3
same,surface tension liquid-gas,308.15 K,36.8 ± 0.5 mN/m
same,mass density,308.15 K,1239.1 ± 1.2 kg/m3
same,surface tension liquid-gas,313.15 K,36.5 ± 0.5 mN/m
same,mass density,313.15 K,1236 ± 1.2 kg/m3
same,surface tension liquid-gas,318.15 K,36.1 ± 0.5 mN/m
same,mass density,318.15 K,1232.8 ± 1.2 kg/m3
same,surface tension liquid-gas,323.15 K,35.9 ± 0.5 mN/m
same,mass density,323.15 K,1229.7 ± 1.2 kg/m3
same,surface tension liquid-gas,328.15 K,35.6 ± 0.5 mN/m
same,mass density,328.15 K,1226.4 ± 1.2 kg/m3
same,surface tension liquid-gas,333.15 K,35.3 ± 0.5 mN/m
same,mass density,333.15 K,1222.8 ± 1.2 kg/m3
same,surface tension liquid-gas,338.15 K,35 ± 0.5 mN/m
same,mass density,338.15 K,1219.9 ± 1.2 kg/m3
same,surface tension liquid-gas,343.15 K,34.6 ± 0.5 mN/m
same,mass density,343.15 K,1216.6 ± 1.2 kg/m3
